Assays:
[1] = system: DA1 receptor; assay: Goldberg in situ renal arterial preparation (renal DA1 assay), intra-arterial injection; format: in vivo, dog; conditions: for Relative Efficacy to DA1 Standard: optimal response of test compound divided by optimal response of dopamine; for ED50: renal blood flow increase, i.a. bolus into renal artery, anesthetized dog; for Relative Potency to DA1 Standard: standard (dopamine) ED50 divided by test compound ED50
Procedure: (§1) The compounds were subsequently tested following intra-arterial administration in an in situ renal and femoral arterial preparation in the dog, as developed by L.I. Goldberg, to test for DA1 and DA2 dopamine activity, respectively. Details of the methodology are provided in the European J. Pharmacol. 89 :137, 1983, as well as in Hypertension 6 :1-25, 1984.
as §1, with “compounds of this invention” for “compounds”, “were” for “were subsequently”, “Pharmacol. ,” for “Pharmacol.”, “Hypertension ,” for “Hypertension”, “1984. J. L. McNay, L. I. Goldberg JPET 151 :23-31, 1966.” for “1984.”
(§2) The compounds were injected directly into the renal or femoral artery for analysis of DA, or DA2 activity, respectively. […] The compounds were tested for relative activity in comparison to the standard DA, agonist, dopamine or the standard DA2 agonist, DPDA. Specific DA, or DA2 activity of the tested compound was verified by Sch 23390 or domperidone blockade.
(§3) Adult mongrel dogs of either sex (12-20 kg) were anesthetized with pentobarbital sodium (33 mg/kg, i.v.). The animals were intubated and ventilated with room air using a Harvard respirator.
as §1, with “compounds of this invention” for “compounds”, “were” for “were subsequently”, “Pharmacol. ,” for “Pharmacol.”, “Hypertension ,” for “Hypertension”, “1984. J. L. McNay, L. I. Goldberg JPET 151 :23-31, 1966” for “1984.”
as §2, with “of DA1” for “of DA,”, “standard DA1” for “standard DA,”
The abdominal aorta was catheterized with a Millar micro-tip (size: 5F) transducer via the right femoral artery for blood pressure monitoring. The right femoral vein was cannulated with PE-160 tubing for iv saline infusion, as well as supplemental pentobarbital administration. The left renal artery was isolated through a lateral abdominal incision. An electromagnetic flowprobe of the appropriate size (8-11 mm circ.) was placed around the artery and connected to a Carolina Medical electromagnetic flowmeter. Surface ECG leads were placed subcutaneously on the chest and limbs to monitor heart rate. A 25 gauge 3/4" needle bent 90°, 4 mm from the tip, was placed in the renal artery proximal to the probe and connected to an infusion pump delivering saline at a constant rate of 1 ml/min. Following a saline and 1µg norepinephrine (NE) challenge, both given in an injection volume of 0.2 ml, the animal was treated with a phenoxybenzamine, 0.5 mg/kg/min i.a., infusion for a duration of 10-20 minutes as necessary to achieve a complete blockade of the NE challenge. Blood pressure was maintained by supplemental saline infusion (10-20 ml/kg, iv). Bradykinin, a standard for nonspecific vasodilation, was given at 0.60 nmole doses, in 0.2 ml saline, i.a., prior to generating a dose response curve for dopamine in which 4-fold increasing doses, ranging from 3 to 48 nmoles, were injected i.a. in 0.2 ml of saline (i.a. bolus). Test compounds were injected similarly in 4-fold increasing doses up to a maximum of 3000 nmoles. Compounds were then repeated at their optimal dose following Sch 23390 pretreatment (0.05 - 0.10 mg/kg, iv).
Efficacy ratios were determined by division of the optimal response of the test compound by the optimal response of the standard agent.

[2] = system: DA2 receptor; assay: Goldberg in situ femoral arterial preparation (DA2 assay), intra-arterial injection; format: in vivo, dog; conditions: for ED50: blood flow increase, i.a. bolus into femoral artery, anesthetized dog; for Relative Efficacy to DA2 Standard: optimal response of test compound divided by optimal response of DPDA; for Relative Potency to DA2 Standard: standard (DPDA) ED50 divided by test compound ED50
Procedure: as §1
as §1, with “compounds of this invention” for “compounds”, “were” for “were subsequently”, “Pharmacol. ,” for “Pharmacol.”, “Hypertension ,” for “Hypertension”, “1984. J. L. McNay, L. I. Goldberg JPET 151 :23-31, 1966.” for “1984.”
as §2, §3
as §1, with “compounds of this invention” for “compounds”, “were” for “were subsequently”, “Pharmacol. ,” for “Pharmacol.”, “Hypertension ,” for “Hypertension”, “1984. J. L. McNay, L. I. Goldberg JPET 151 :23-31, 1966” for “1984.”
as §2, with “of DA1” for “of DA,”, “standard DA1” for “standard DA,”
The thoracic aorta was catheterized with a Millar micro-tip (size 5F) transducer via the right carotid artery for blood pressure monitoring. The right external jugular vein was cannulated with PE-160 tubing for supplemental pentobarbital administration. The left femoral artery was isolated and an electromagnetic flowprobe of the appropriate size (8-11 mm circ.) was placed around the artery and connected to a Caroline Medical electromagnetic flowmeter. Surface ECG leads were placed subcutaneously on the chest and limbs to monitor heart rate. A 25 gauge 3/4" needle bent 90` , 4 mm from the tip, was placed in the femoral artery proximal to the probe and connected to an infusion pump delivering saline at a constant rate of 1 ml/min. Following a saline and bradykinin challenge (0.02 to 0.04 nmoles, in 0.2 ml saline, i.a.), a dose response curve for DPDA was generated by injecting 4-fold increasing doses i.a. ranging from 3 to 48 nmoles in 0.2 ml saline. Test compounds were injected similarly in 4-fold increasing doses up to 3000 nmoles. Compounds were then repeated at their optimal dose following domperidone pretreatment (10-40 Ilg/kg, iv).
Efficacy ratios were determined by division of the optimal response of the test compound by the optimal response of the standard agent. The optimal dose of compound was defined as that which produced a maximum increase in blood flow before causing a change in systemic blood pressure. ED50 values were derived by regression analysis from individually generated dose response curves. Potency ratios were the quotients calculated from the division of the standard agent EDso by the ED50 of the test compound. […] If the inhibition of the test compound was similar to that of dopamine or DPDA, the compound was considered to be a DA, or DA2 agonist, respectively.

Row | Compound | Relative Efficacy to DA1 Standard [1] | ED50 [1] [nmol] | Relative Potency to DA1 Standard [1] | ED50 [2] [nmol] | Relative Efficacy to DA2 Standard [2] | Relative Potency to DA2 Standard [2]
1 | Br.Br.CCCN(CCCCCCN1CCC[C@@H]1Cc1ccc(O)c(O)c1)CCc1ccc(O)cc1 [Test Compound 1, (R)-2-(3,4-dihydroxybenzyl)-1-[6-(N-(4-hydroxyphenethyl)-N-propylamino)hexyl]pyrrolidine dihydrobromide] | 1.10 | 0.87 | 6.44 | 0.02 | 1.29 | 327.50
2 | Br.Br.CCCN(CCCCCCN1CCC[C@@H]1Cc1ccc(O)c(O)c1)CCc1cccc(O)c1 [Test Compound 2, (R)-2-(3,4-dihydroxybenzyl)-1-[6-(N-(3-hydroxyphenethyl)-N-propylamino)hexyl]pyrrolidine dihydrobromide] | 0.93 | 0.34 | 17.47 | 0.04 | 1.26 | 216.00

— patent publication EP0426075A1, “Benzylpyrrolidine derivatives as dopamine agonists” (SYNTEX (U.S.A.) INC., priority 1989, dated 1991)
